# Where two headings read alike, the source gives them in different places.
# Key:
# Experiment in all cases: biochemical
# Format in all cases: binding
# [1] = biological target: T1, cellular kinases of SH-SY5Y cells (Homo sapiens, UniProt Q15831); details: 2µM; SH-SY5Y cells; Labeling Site Lys2; DIKPGNLLLTTGGTLK; read-out: KiNativ in-cell binding, % Inhibition, STK11/LKB1
# T1 construct: endogenous in cells; host or cells: SH-SY5Y
# Text: (§1) As KINOMEscan is an in vitro assay, and as different cell types have variable kinase expression profiles we sought to determine the kinase binding profile in our SH-SY5Y TFEB-relocalization cell model. […] Bound kinases were pulled down and analyzed by mass spectrometry to determine the in situ kinase binding profile for each compound.
# [2] = biological target: cellular kinases of SH-SY5Y cells (Homo sapiens, UniProt O43318); details: 2µM; SH-SY5Y cells; Labeling Site Lys2; DLKPPNLLLVAGGTVLK; read-out: KiNativ in-cell binding, % Inhibition, MAP3K7
# Text: as §1
# [3] = biological target: T2, cellular kinases of SH-SY5Y cells (Homo sapiens, UniProt Q16644); details: 2µM; SH-SY5Y cells; Labeling Site ATP Loop; QVLGLGVNGKVLECFHR; read-out: KiNativ in-cell binding, % Inhibition, MAPKAPK3
# T2 construct: endogenous in cells; host or cells: SH-SY5Y
# Text: as §1
# [4] = biological target: cellular kinases of SH-SY5Y cells (Homo sapiens, UniProt Q05397); details: 2µM, SH-SY5Y cells, read-out: KiNativ in-cell binding, % Inhibition, PTK2/FAK
# Text: as §1
# [5] = biological target: cellular kinases of SH-SY5Y cells (Homo sapiens, UniProt Q16512); details: 2µM; SH-SY5Y cells; Labeling Site Lys1; VLLSEFRPSGELFAIKALK; read-out: KiNativ in-cell binding, % Inhibition, PKN1
# Text: as §1
# [6] = biological target: T3, cellular kinases of SH-SY5Y cells (Homo sapiens, UniProt Q9UBF8); details: 2µM, SH-SY5Y cells, Labeling Site ATP, read-out: KiNativ in-cell binding, % Inhibition, PI4KB
# T3 construct: endogenous in cells; host or cells: SH-SY5Y
# Text: as §1
# [7] = biological target: cellular kinases of SH-SY5Y cells (Homo sapiens, UniProt Q13557); details: 2µM; SH-SY5Y cells; Labeling Site Lys1; IPTGQEYAAKIINTKK; read-out: KiNativ in-cell binding, % Inhibition, CaMK2d
# Text: as §1
# [8] = biological target: T4, cellular kinases of SH-SY5Y cells (Homo sapiens, UniProt Q8IVH8); details: 2µM, SH-SY5Y cells, read-out: KiNativ in-cell binding, % Inhibition, MAP4K3
# T4 construct: endogenous in cells; host or cells: SH-SY5Y
# Text: as §1
# [9] = biological target: T5, cellular kinases of SH-SY5Y cells (Homo sapiens, UniProt Q15208); details: 2µM, SH-SY5Y cells, read-out: KiNativ in-cell binding, % Inhibition, STK38/NDR1
# T5 construct: endogenous in cells; host or cells: SH-SY5Y
# Text: as §1
# [10] = biological target: T6, cellular kinases of SH-SY5Y cells (Homo sapiens, UniProt Q92918); details: 2µM, SH-SY5Y cells, read-out: KiNativ in-cell binding, % Inhibition, MAP4K1/HPK1
# T6 construct: endogenous in cells; host or cells: SH-SY5Y
# Text: as §1
# [11] = biological target: T7, cellular kinases of SH-SY5Y cells (Homo sapiens, UniProt O60307); details: 2µM; SH-SY5Y cells; Labeling Site Lys2; DLKPDNLLITSLGHIK; read-out: KiNativ in-cell binding, % Inhibition, MAST3
# T7 construct: endogenous in cells; host or cells: SH-SY5Y
# Text: as §1
# [12] = biological target: cellular kinases of SH-SY5Y cells (Homo sapiens, UniProt P09769); details: 2µM; SH-SY5Y cells; Labeling Site Activation Loop; LIKDDEYNPCQGSKFPIK; read-out: KiNativ in-cell binding, % Inhibition, FGR
# Text: as §1
# [13] = biological target: cellular kinases of SH-SY5Y cells (Homo sapiens, UniProt P15056); details: 2µM; SH-SY5Y cells; labeling site Lys2; peptide DLKSNNIFLHEDLTVK
# Text: as §1
# [14] = biological target: T8, cellular kinases of SH-SY5Y cells (Homo sapiens, UniProt O14920); details: 2µM; SH-SY5Y cells; Labeling Site Lys2; DLKPENIVLQQGEQR; read-out: KiNativ in-cell binding, % Inhibition, IKBKB/IKKb
# T8 construct: endogenous in cells; host or cells: SH-SY5Y
# Text: as §1
# [15] = biological target: cellular kinases of SH-SY5Y cells (Homo sapiens, UniProt P29317); details: 2µM; SH-SY5Y cells; Labeling Site Activation Loop; VLEDDPEATYTTSGGKIPIR; read-out: KiNativ in-cell binding, % Inhibition, EphA2
# Text: as §1
# [16] = biological target: cellular kinases of SH-SY5Y cells (Homo sapiens, UniProt P00533); details: 2µM, SH-SY5Y cells, read-out: KiNativ in-cell binding, % Inhibition, EGFR, EGFR-L858R
# Text: as §1
# [17] = biological target: cellular kinases of SH-SY5Y cells (Homo sapiens, UniProt Q96GD4); details: 2µM; SH-SY5Y cells; Labeling Site Lys1; SHFIVALKVLFK; read-out: KiNativ in-cell binding, % Inhibition, AURKB/AurB
# Text: as §1
# [18] = biological target: cellular kinases of SH-SY5Y cells (Homo sapiens, UniProt P49841); details: read-out: KiNativ in-cell binding, % Inhibition, GSK3B
# Text: as §1
# [19] = biological target: cellular kinases of SH-SY5Y cells (Homo sapiens, UniProt Q9Y6M4); details: 2µM; SH-SY5Y cells; Labeling Site Lys2; DVKPENFLIGRPGNK; read-out: KiNativ in-cell binding, % Inhibition, CSNK1G3
# Text: as §1
# [20] = biological target: T9, cellular kinases of SH-SY5Y cells (Homo sapiens, UniProt P23743)
# T9 construct: endogenous in cells; host or cells: SH-SY5Y
# Text: as §1
# T5 sequence (Q15208 whole entry): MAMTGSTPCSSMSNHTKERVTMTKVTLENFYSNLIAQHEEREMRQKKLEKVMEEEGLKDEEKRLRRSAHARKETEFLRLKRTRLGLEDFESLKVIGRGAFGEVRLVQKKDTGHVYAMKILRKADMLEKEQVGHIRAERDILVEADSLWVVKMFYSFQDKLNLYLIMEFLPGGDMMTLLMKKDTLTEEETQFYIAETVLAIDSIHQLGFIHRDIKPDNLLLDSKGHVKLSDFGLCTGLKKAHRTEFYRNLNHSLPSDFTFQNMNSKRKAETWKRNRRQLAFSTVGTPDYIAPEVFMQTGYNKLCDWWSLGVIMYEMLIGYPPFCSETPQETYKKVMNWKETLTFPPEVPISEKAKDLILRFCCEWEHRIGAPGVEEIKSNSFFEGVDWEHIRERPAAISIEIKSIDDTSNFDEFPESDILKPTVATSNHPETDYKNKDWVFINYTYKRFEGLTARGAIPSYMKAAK
# T4 sequence (Q8IVH8 whole entry): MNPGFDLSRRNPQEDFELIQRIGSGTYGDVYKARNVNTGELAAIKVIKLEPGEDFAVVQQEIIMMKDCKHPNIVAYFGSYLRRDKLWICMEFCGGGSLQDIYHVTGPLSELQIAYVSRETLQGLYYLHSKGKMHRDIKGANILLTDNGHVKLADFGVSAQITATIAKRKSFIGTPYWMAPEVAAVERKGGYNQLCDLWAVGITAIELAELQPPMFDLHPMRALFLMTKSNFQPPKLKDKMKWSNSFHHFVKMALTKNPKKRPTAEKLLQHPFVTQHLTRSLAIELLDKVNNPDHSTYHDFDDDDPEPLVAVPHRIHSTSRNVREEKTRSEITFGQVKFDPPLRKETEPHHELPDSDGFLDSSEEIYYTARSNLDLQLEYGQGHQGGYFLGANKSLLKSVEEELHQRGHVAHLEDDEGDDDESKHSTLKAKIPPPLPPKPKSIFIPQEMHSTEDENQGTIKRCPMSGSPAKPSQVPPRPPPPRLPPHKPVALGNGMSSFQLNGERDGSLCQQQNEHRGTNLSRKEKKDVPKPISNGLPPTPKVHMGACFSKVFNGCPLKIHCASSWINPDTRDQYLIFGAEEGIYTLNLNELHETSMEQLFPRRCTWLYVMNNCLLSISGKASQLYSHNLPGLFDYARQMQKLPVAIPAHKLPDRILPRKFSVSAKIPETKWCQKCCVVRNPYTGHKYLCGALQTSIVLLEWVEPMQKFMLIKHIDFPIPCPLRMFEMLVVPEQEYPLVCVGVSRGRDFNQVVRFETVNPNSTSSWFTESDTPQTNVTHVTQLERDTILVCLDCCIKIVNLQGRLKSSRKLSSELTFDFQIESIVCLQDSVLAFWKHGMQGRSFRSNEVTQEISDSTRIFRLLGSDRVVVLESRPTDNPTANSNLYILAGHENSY
# T6 sequence (Q92918 whole entry): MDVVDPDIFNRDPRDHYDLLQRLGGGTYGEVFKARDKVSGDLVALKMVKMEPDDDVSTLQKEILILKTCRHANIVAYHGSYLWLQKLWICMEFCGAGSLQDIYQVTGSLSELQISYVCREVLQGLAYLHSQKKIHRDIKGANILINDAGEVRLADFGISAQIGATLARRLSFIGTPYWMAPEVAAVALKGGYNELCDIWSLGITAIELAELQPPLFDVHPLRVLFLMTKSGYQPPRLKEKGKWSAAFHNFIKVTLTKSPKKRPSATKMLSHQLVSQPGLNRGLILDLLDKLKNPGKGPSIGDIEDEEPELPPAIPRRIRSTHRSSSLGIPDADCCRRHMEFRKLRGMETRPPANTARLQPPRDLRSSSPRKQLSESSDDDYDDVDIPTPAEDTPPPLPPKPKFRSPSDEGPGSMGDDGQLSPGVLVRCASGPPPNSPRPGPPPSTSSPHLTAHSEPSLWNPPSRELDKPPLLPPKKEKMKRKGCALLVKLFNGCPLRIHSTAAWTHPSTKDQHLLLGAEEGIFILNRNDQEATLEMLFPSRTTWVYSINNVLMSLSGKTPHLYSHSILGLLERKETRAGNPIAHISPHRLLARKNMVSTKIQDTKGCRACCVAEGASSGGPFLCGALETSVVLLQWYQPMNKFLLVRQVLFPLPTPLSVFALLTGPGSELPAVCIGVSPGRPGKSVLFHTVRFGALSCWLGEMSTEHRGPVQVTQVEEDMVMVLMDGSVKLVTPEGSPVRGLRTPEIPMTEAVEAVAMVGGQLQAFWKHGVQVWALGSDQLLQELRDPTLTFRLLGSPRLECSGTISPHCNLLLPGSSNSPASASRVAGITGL
# Chain of cellular kinases of SH-SY5Y cells (Homo sapiens, UniProt P00533) (P00533 25-1210): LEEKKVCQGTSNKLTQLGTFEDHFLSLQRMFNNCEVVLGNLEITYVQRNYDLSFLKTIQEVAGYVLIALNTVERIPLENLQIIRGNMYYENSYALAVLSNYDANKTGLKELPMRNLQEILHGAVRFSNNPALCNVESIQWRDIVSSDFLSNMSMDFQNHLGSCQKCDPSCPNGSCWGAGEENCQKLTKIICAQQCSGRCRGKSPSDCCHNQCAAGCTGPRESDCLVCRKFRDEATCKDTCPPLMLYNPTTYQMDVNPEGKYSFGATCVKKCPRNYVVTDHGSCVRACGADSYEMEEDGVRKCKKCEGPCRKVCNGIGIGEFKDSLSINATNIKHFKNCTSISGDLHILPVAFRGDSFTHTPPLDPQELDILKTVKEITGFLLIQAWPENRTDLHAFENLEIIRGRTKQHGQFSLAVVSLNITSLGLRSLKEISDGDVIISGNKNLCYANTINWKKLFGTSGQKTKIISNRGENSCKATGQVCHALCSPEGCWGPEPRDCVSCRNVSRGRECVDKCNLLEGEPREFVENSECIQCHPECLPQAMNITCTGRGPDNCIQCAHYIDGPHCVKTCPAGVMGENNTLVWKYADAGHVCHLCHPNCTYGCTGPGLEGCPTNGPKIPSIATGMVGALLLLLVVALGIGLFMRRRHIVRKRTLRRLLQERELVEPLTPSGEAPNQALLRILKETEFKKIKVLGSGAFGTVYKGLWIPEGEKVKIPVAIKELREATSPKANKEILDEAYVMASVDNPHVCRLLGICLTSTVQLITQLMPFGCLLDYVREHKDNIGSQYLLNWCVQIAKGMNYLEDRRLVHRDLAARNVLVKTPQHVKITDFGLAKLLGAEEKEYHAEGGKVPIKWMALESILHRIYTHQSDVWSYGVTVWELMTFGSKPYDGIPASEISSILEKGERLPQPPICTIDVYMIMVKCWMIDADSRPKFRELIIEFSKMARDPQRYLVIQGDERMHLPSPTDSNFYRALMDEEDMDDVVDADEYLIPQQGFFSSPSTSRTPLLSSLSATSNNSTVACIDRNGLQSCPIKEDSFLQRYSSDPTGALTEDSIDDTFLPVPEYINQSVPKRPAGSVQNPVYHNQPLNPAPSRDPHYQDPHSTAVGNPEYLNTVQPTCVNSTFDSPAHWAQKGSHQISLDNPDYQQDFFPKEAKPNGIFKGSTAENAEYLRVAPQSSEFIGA
# Chain of cellular kinases of SH-SY5Y cells (Homo sapiens, UniProt Q05397) (Q05397 whole entry): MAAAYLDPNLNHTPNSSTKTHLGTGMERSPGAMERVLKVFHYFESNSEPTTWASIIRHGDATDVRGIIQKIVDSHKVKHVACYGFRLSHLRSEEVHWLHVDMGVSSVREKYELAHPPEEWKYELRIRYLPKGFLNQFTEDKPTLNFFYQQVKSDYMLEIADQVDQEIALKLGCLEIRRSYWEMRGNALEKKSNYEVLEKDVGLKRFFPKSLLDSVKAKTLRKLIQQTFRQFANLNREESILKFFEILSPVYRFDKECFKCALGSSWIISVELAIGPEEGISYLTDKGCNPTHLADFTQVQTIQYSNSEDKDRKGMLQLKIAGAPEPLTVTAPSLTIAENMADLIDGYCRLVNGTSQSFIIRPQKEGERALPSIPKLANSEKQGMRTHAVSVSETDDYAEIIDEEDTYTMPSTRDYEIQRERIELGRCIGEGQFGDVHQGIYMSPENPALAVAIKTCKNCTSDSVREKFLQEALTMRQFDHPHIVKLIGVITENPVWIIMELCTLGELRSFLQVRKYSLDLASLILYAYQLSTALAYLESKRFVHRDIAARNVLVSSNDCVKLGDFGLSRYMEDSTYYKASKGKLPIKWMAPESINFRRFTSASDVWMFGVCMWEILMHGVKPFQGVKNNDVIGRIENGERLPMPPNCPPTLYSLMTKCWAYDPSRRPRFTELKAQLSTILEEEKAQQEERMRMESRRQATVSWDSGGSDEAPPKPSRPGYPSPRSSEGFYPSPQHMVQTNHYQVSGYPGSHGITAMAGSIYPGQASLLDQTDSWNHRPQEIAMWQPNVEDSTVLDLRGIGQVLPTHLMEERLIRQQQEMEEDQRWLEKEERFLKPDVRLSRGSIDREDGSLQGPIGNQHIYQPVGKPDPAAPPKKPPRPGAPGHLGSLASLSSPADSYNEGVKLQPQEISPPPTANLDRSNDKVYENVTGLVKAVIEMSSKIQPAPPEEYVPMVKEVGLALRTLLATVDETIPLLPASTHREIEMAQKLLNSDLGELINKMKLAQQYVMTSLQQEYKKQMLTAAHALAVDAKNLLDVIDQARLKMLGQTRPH
# T2 sequence (Q16644 whole entry): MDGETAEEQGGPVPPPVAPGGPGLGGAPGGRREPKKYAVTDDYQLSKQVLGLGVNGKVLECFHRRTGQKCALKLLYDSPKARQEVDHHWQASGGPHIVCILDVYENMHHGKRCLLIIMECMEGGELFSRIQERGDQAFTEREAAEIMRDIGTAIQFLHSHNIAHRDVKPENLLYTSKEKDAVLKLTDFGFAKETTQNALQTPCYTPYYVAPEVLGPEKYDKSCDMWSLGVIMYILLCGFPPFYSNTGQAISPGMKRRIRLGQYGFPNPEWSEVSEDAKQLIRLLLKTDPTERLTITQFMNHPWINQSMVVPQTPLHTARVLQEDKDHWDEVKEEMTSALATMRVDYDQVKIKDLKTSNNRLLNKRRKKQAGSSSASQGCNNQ
smiles,measurement,setting,value
Cc1cccc(-c2nc(Nc3ccc4ncsc4c3)c3ccccc3n2)n1 [NK140],inhibition at 2 µM,[1],58%
same,inhibition at 2 µM,[2],8.7%
same,inhibition at 2 µM,[3],16.2%
same,inhibition at 2 µM,"[4]; Labeling Site Activation Loop, YMEDSTYYKASK",16.9%
same,inhibition at 2 µM,"[4]; Labeling Site Lys1, CIGEGQFGDVHQGIYMSPENPALAVAIKTCK",18%
same,inhibition at 2 µM,[5],3%
same,inhibition at 2 µM,[6]; LLSVIVKCGDDLRQELLAFQVLK,29.7%
same,inhibition at 2 µM,[6]; VPHTQAVVLNSKDK,32.3%
same,inhibition at 2 µM,[7],30.5%
same,inhibition at 2 µM,"[8]; Labeling Site Lys1, NVNTGELAAIKVIK",29.8%
same,inhibition at 2 µM,"[8]; Labeling Site Lys2, DIKGANILLTDNGHVK",20.5%
same,inhibition at 2 µM,"[9]; Labeling Site Lys1, DTGHVYAMKILR",-36.9%
same,inhibition at 2 µM,"[9]; Labeling Site Lys2, DIKPDNLLLDSK",20.9%
same,inhibition at 2 µM,"[10]; Labeling Site Lys1, DKVSGDLVALKMVK",6.9%
same,inhibition at 2 µM,"[10]; Labeling Site Lys2, DIKGANILINDAGEVR",30.2%
same,inhibition at 2 µM,[11],1.2%
same,inhibition at 2 µM,[12],20.4%
same,"KiNativ in-cell binding, BRAF, BRAF V600E",[13],-25.8
same,inhibition at 2 µM,[14],-43%
same,inhibition at 2 µM,[15],1.2%
same,inhibition at 2 µM,"[16]; Labeling Site Activation Loop, LLGAEEKEYHAEGGKVPIK",33.5%
same,inhibition at 2 µM,"[16]; Labeling Site Lys1, IPVAIKELR",14.4%
same,inhibition at 2 µM,[17],27.7%
same,inhibition at 2 µM,[18],15.8%
same,inhibition at 2 µM,[19],-29%
same,"KiNativ in-cell binding, DGKA",[20],-19.6

# Reference: PMC9851200, “Multiparameter phenotypic screening for endogenous TFEB and TFE3 translocation identifies novel chemical series modulating lysosome function” (Autophagy, 2022)
